Laboratory results as given in patent US7655224B2, “Neural stem cells and use thereof for brain tumor therapy” (priority 1998, dated 2010).

Legend:
[1] = tested on: neural stem cells (clone C17.2); assay: Cell number and growth of neural stem cells under mimosine and GCV; type: cell-based, murine
Source text: Medium was changed every third day. […] Medium was replaced on day 4 and day 6.
In contrast, untreated neural stem cell cultures continued proliferating over the same period, reaching a density of 1.7×10^6 cells/ml on day 10. […] Re-growth of neural stem cells occurred at a faster rate if cells were additionally rinsed and split 1:8 after removal of drug(s) on day 10.

[2] = tested on: neural stem cells (clone C17.2); assay: Cytopathic effect and morphology of neural stem cells (drug treatment, virus infection); details: for cell morphology: cells below confluency, mimosine 400 μM
Experimental: Neural stem cells were grown in 24-well plates until they reached confluency (approximately 400,000 cells/well). Medium was changed every third day. […] Medium was replaced on day 4 and day 6. […] Cell culture medium was changed again on days 10, 13 and 17. […] Cell morphology and cells/well for different treatment conditions were determined in duplicate on days 0, 4, 7, 10, 13, and 17. The number of cells/well was determined using a Coulter Counter (Coulter Electronics, Hialeah, Fla.).
Virus titers in the conditioned medium—and in some experiments also in cell lysates—were determined by standard plaque tests on Vero cells. […] Also, the influence of the expression of viral proteins VP 16 and ICP6 (RR), mediated by infection with amplicon vectors, on the replication of hrR3 mutant virus was determined at different time points after infection of neural stem cells. Stocks of helper-free packaged amplicons HSV 16. HSVRR and HSVIacZ (100 μl each) were added to the wells on day 7, 10, or 13. Three days later titers of hrR3 in the medium were determined by plaque assay.
The genotype of hrR3 is RR- LacZ^+ [Goldstein and Weller, Virology 166: 141-51, 1988] with the lacZ gene under control of the ICP6 early viral promoter. RRP450 was derived from hrR3 by replacement of the lacZ gene with the cytochrome P450 gene [Chase et al., Nat Biotechnol 16: 444-8, 1998].

hrR3 = assay: Dexamethasone treatment of hrR3-infected, mimosine/GCV-treated neural stem cell cultures; type: cell-based, HSV-1; details: dexamethasone 10^-7 M on day 10; detection level

SMILES	cell viability ([1]; 5 μM added from day 6, compared to mimosine alone)	cell morphology [2]	virus titers in the media and cell lysates (hrR3)	treatment time at which block of cell division and viral replication is reversible [1]	Cells/well ([1]; 400 μM, 4 and 7 days after beginning of treatment)	cell number of infected cultures kept on treatment ([1]; infected MOI 1 day 7, day 13 and 17)	growth after removal of drug ([1]; removed on day 10)	virally induced CPE in presence of drug [2]	CPE ([2]; day 13, infected day 7, split 1:8 into drug-free media day 10)	CPE ([2]; day 13, infected, not split)	CPE ([2]; day 17, infected and split)	CPE ([2]; day 17, infected, non-split)	cytopathic effect associated with virus replication ([2]; infection at MOI of 10)	cytopathic effect of drug alone ([2]; uninfected)
Nc1nc(O)c2ncn(COC(CO)CO)c2n1 [GCV, ganciclovir]	did not significantly affect cell viability	did not change this morphology	–	–	–	–	–	–	–	–	–	–	–	–
C[C@@H]1C[C@H]2[C@@H]3CCC4=CC(=O)C=C[C@]4(C)[C@@]3(F)[C@@H](O)C[C@]2(C)[C@@]1(O)C(=O)CO [dexamethasone]	–	–	< 10 pfu/100,000 cells	–	–	–	–	–	–	–	–	–	–	–
NC(Cn1ccc(=O)c(O)c1)C(=O)O (stereo not drawn) [mimosine]	–	developed extensions and a more neuronal shape	–	≥ 13 days	around 400,000 cells	remained at the same cell number	growth of neural stem cells resumed	prevented virally induced CPE	some cytopathic effect	no CPE	extensive CPE	some CPE	typical cytopathic effect	did not induce a significant cytopathic effect
